According to the supplement of paper PMC10307832:

Columns and labels:
Assay in all cases: relative viability (nuclei count vs DMSO), 5 days (fraction); higher = more cells survive
[1] = compound: COc1ccc(-c2ccc3c(N4CCOC[C@@H]4C)nc(N4CCOC[C@@H]4C)nc3n2)cc1CO [AZD8055] + CCNC(=O)c1noc(-c2cc(C(C)C)c(O)cc2O)c1-c1ccc(CN2CCOCC2)cc1 [Luminespib] (partner 0.01 µM)
Summary of the method: (§1)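 Relative viability divides the nuclei count in treated wells by that in vehicle wells. Lung cancer cell lines were seeded in 1536-well plates, dosed by pin tool the next day, and fixed and stained after 5 days in one step with final 0.05% Triton X-100, 1% formaldehyde and 1 ug/ml Hoechst. Dosing was a single drug or a fixed anchor-drug dose plus five library-drug doses (not always all listed) in √10 steps, and values are medians of duplicate plates imaged at 4×.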

[2] = compound: COc1ccc(-c2ccc3c(N4CCOC[C@@H]4C)nc(N4CCOC[C@@H]4C)nc3n2)cc1CO [AZD8055] + CC(C)C[C@H](NC(=O)[C@H](Cc1ccccc1)NC(=O)c1cnccn1)B(O)O [Bortezomib] (partner 0.002 µM)
Summary of the method: as §1

[3] = compound: COc1ccc(-c2ccc3c(N4CCOC[C@@H]4C)nc(N4CCOC[C@@H]4C)nc3n2)cc1CO [AZD8055] + Cc1nc(Nc2ncc(C(=O)Nc3c(C)cccc3Cl)s2)cc(N2CCN(CCO)CC2)n1 [Dasatinib] (partner 0.075 µM)
Summary of the method: as §1

[4] = compound: COc1ccc(-c2ccc3c(N4CCOC[C@@H]4C)nc(N4CCOC[C@@H]4C)nc3n2)cc1CO [AZD8055] + CC(=O)c1c(C)c2cnc(Nc3ccc(N4CCNCC4)cn3)nc2n(C2CCCC2)c1=O [Palbociclib] (partner 0.5 µM)
Summary of the method: as §1

| Cell Line | relative viability ([1]; first compound 0.01 µM) | relative viability ([1]; first compound 0.03162 µM) | relative viability ([1]; first compound 0.1 µM) | relative viability ([1]; first compound 0.3162 µM) | relative viability ([1]; first compound 1 µM) | relative viability ([2]; first compound 0.01 µM) | relative viability ([2]; first compound 0.03162 µM) | relative viability ([2]; first compound 0.1 µM) | relative viability ([2]; first compound 0.3162 µM) | relative viability ([2]; first compound 1 µM) | relative viability ([3]; first compound 0.01 µM) | relative viability ([3]; first compound 0.03162 µM) | relative viability ([3]; first compound 0.1 µM) | relative viability ([3]; first compound 0.3162 µM) | relative viability ([3]; first compound 1 µM) | relative viability ([4]; first compound 0.01 µM) | relative viability ([4]; first compound 0.03162 µM) | relative viability ([4]; first compound 0.1 µM) | relative viability ([4]; first compound 0.3162 µM) | relative viability ([4]; first compound 1 µM) |
| --- | --- | --- | --- | --- | --- | --- | --- | --- | --- | --- | --- | --- | --- | --- | --- | --- | --- | --- | --- | --- |
| NCI-H650 | 0.998 | 0.768 | 0.691 | 0.436 | 0.295 | 0.658 | 0.511 | 0.681 | 0.343 | 0.291 | 0.469 | 0.393 | 0.36 | 0.292 | 0.231 | 0.371 | 0.307 | 0.273 | 0.196 | 0.165 |
| NCI-H1792 | 0.38 | 0.415 | 0.218 | 0.295 | 0.127 | 0.93 | 0.771 | 0.827 | 0.173 | 0.189 | 0.844 | 0.667 | 0.583 | 0.321 | 0.237 | 0.677 | 0.585 | 0.417 | 0.359 | 0.307 |
| NCI-H1355 | 0.601 | 0.369 | 0.234 | 0.238 | 0.206 | 1.23 | 1.06 | 0.9 | 0.309 | 0.315 | 0.551 | 0.443 | 0.435 | 0.218 | 0.263 | 0.323 | 0.284 | 0.219 | 0.215 | 0.218 |
| SW 1573 | 0.121 | 0.256 | 0.167 | 0.103 | 0.187 | 1.16 | 0.826 | 0.711 | 0.286 | 0.255 | 0.583 | 0.534 | 0.262 | 0.114 | 0.103 | 0.342 | 0.324 | 0.159 | 0.145 | 0.133 |
| NCI-H2347 | 0.295 | 0.251 | 0.367 | 0.282 | 0.222 | 0.704 | 0.944 | 0.598 | 0.438 | 0.401 | 0.307 | 0.29 | 0.252 | 0.235 | 0.213 | 0.428 | 0.44 | 0.384 | 0.346 | 0.352 |
| LCLC-97TM1 | 0.706 | 0.531 | 0.365 | 0.216 | 0.241 | 0.524 | 0.417 | 0.345 | 0.103 | 0.162 | 0.873 | 0.748 | 0.761 | 0.393 | 0.445 | 0.205 | 0.164 | 0.129 | 0.0928 | 0.0897 |
| EMC-BAC-2 | 1.18 | 1.05 | 0.867 | 0.534 | 0.403 | 1.06 | 1.04 | 0.954 | 0.465 | 0.382 | 0.32 | 0.25 | 0.234 | 0.186 | 0.186 | 0.477 | 0.437 | 0.376 | 0.31 | 0.29 |
| NCI-H1975 | 0.2 | 0.155 | 0.186 | 0.149 | 0.147 | 0.409 | 0.303 | 0.282 | 0.206 | 0.216 | 0.34 | 0.265 | 0.129 | 0.132 | 0.135 | 0.712 | 0.388 | 0.252 | 0.151 | 0.161 |
| BEN | 0.242 | 0.179 | 0.305 | 0.216 | 0.192 | 0.663 | 0.472 | 0.428 | 0.365 | 0.262 | 0.273 | 0.246 | 0.205 | 0.237 | 0.171 | 0.485 | 0.472 | 0.436 | 0.475 | 0.413 |
| NCI-H23 | 0.193 | 0.216 | 0.208 | 0.229 | 0.297 | 1.3 | 0.881 | 0.791 | 0.27 | 0.271 | 0.874 | 0.732 | 0.572 | 0.276 | 0.27 | 0.439 | 0.367 | 0.295 | 0.193 | 0.187 |
| NCI-H520 | 0.239 | 0.228 | 0.171 | 0.183 | 0.16 | 0.623 | 0.185 | 0.16 | 0.127 | 0.147 | 0.142 | 0.13 | 0.15 | 0.14 | 0.171 | 0.167 | 0.15 | 0.156 | 0.141 | 0.161 |
| CAL-12T | 0.321 | 0.203 | 0.131 | 0.152 | 0.139 | 1.21 | 0.955 | 0.521 | 0.298 | 0.316 | 0.536 | 0.388 | 0.34 | 0.136 | 0.12 | 0.353 | 0.399 | 0.171 | 0.163 | 0.191 |
| EPLC-272H | 0.182 | 0.12 | 0.178 | 0.22 | 0.182 | 0.74 | 0.62 | 0.754 | 0.522 | 0.691 | 0.333 | 0.221 | 0.173 | 0.109 | 0.128 | 0.319 | 0.303 | 0.309 | 0.27 | 0.219 |
| LCLC-103H | 0.951 | 0.762 | 0.793 | 0.414 | 0.271 | 1.15 | 0.934 | 0.93 | 0.745 | 0.673 | 0.412 | 0.315 | 0.379 | 0.2 | 0.211 | 0.52 | 0.48 | 0.398 | 0.468 | 0.421 |
| NCI-H2405 | 0.757 | 0.564 | 0.536 | 0.289 | 0.279 | 1 | 0.975 | 0.906 | 0.46 | 0.414 | 0.225 | 0.204 | 0.215 | 0.188 | 0.183 | 0.51 | 0.47 | 0.384 | 0.336 | 0.295 |
| HCC-15 | 0.304 | 0.39 | 0.262 | 0.208 | 0.242 | 1.17 | 1.1 | 0.976 | 0.663 | 0.615 | 0.615 | 0.541 | 0.477 | 0.273 | 0.174 | 0.858 | 0.687 | 0.667 | 0.369 | 0.275 |
